Drawing on ChEMBL document CHEMBL1909046, “DrugMatrix in vitro pharmacology data”, this text covers IC50 and Ki for 14 compounds.

Assay [1] in a line: DRUGMATRIX: Calcium Channel Type L, Dihydropyridine radioligand binding (ligand: [3H] Nitrendipine). In kind it is cell membranes, Rattus norvegicus, Wistar, Cerebral cortex, Membrane. Particulars: Not Active = under 50% inhibition at 10 µM.
Another assay deals with Insulin receptor (Rattus norvegicus, UniProt P15127). In kind it is cell membranes, Wistar, Liver, Membrane.
For assay [2], the target named is Kappa-type opioid receptor (Homo sapiens, UniProt P41145). The experiment in a line: DRUGMATRIX: Opiate kappa (OP2, KOP) radioligand binding (ligand: [3H] Diprenorphine). Particulars: hek293; Not Active = under 50% inhibition at 10 µM. In kind it is cell membranes, HEK293, Membrane.
Assay [3] has as its target 5-hydroxytryptamine receptor 6 (Homo sapiens, UniProt P50406). It counts as cell membranes, HeLa, Membrane. The conditions noted are these: hela. Also: in other assays of this panel Not Active means under 50% inhibition at 10 µM.
Assay [4] deals with 5-hydroxytryptamine receptor 2B (Homo sapiens, UniProt P41595). In kind it is cell membranes, CHO-K1, Membrane.
A further assay addresses Mu-type opioid receptor (Homo sapiens, UniProt P35372). The experiment in a line: DRUGMATRIX: Opiate mu (OP3, MOP) radioligand binding (ligand: [3H] Diprenorphine). It counts as cell membranes, CHO-K1, Membrane. The conditions noted are these: cho-k1; Not Active = under 50% inhibition at 10 µM.

Sequence of 5-hydroxytryptamine receptor 2B (P41595 whole entry): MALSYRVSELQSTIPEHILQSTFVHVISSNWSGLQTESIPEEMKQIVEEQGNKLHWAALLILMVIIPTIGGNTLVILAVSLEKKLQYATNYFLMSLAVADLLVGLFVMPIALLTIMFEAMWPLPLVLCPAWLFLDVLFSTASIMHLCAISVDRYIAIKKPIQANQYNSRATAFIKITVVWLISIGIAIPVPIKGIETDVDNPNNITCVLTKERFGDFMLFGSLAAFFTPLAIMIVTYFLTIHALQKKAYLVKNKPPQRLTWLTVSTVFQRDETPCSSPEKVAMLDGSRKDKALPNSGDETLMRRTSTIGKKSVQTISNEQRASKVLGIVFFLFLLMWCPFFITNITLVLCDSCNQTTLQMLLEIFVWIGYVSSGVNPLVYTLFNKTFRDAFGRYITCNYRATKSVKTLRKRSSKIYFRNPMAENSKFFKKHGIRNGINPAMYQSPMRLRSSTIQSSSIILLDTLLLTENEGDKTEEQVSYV
Sequence of Kappa-type opioid receptor (P41145 whole entry): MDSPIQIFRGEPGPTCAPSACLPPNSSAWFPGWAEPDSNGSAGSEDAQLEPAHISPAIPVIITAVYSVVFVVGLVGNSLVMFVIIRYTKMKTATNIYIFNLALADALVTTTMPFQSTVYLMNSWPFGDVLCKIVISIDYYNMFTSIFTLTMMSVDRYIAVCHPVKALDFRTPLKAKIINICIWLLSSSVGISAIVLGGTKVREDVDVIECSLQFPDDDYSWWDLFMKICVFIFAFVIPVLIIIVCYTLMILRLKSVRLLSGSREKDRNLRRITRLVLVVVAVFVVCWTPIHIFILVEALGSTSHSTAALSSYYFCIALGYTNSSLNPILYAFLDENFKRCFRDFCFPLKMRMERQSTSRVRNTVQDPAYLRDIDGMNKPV
Sequence of 5-hydroxytryptamine receptor 6 (P50406 whole entry): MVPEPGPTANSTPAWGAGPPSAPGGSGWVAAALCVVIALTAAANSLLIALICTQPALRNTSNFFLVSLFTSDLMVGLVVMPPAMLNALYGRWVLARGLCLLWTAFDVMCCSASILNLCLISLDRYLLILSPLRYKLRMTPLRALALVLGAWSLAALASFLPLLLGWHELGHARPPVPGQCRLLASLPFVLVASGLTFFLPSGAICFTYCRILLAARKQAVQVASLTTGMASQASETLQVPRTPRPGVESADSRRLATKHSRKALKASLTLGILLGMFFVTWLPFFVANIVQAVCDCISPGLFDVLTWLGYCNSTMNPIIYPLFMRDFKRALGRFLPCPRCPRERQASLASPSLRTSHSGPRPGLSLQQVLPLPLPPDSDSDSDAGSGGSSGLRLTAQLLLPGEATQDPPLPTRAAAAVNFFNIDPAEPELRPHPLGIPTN
Sequence of Mu-type opioid receptor (P35372 whole entry): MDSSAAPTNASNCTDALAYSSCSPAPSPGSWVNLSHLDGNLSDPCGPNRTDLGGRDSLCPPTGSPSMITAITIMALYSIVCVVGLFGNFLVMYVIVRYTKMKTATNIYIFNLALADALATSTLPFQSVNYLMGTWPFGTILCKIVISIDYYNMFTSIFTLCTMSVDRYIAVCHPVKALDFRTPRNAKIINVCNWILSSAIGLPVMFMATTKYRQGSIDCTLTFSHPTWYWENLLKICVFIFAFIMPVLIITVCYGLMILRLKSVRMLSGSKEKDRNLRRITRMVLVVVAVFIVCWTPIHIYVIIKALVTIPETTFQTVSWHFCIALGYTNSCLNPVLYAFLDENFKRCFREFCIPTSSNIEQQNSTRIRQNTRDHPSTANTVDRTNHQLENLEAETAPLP
Sequence of Insulin receptor (P15127 27-759 limits assumed): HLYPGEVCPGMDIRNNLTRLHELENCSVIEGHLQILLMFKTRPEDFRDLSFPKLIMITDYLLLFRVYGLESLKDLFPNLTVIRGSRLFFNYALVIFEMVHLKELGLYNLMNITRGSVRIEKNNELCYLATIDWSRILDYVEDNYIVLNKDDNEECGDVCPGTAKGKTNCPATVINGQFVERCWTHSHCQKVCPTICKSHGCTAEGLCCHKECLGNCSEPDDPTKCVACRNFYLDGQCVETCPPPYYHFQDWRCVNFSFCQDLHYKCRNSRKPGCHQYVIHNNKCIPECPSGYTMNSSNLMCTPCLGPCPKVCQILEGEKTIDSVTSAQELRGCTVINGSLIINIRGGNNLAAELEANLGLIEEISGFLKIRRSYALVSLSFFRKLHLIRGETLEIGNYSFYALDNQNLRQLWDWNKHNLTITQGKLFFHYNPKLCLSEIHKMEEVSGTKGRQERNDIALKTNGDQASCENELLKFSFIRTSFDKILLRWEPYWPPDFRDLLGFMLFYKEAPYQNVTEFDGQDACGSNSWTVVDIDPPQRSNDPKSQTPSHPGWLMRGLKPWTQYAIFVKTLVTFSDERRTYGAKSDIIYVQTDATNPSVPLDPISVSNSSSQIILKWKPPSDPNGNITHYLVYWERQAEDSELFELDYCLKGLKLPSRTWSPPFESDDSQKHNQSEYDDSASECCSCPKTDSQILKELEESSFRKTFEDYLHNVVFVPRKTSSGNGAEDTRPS
Sequence of Insulin receptor (P15127 764-1383 limits assumed): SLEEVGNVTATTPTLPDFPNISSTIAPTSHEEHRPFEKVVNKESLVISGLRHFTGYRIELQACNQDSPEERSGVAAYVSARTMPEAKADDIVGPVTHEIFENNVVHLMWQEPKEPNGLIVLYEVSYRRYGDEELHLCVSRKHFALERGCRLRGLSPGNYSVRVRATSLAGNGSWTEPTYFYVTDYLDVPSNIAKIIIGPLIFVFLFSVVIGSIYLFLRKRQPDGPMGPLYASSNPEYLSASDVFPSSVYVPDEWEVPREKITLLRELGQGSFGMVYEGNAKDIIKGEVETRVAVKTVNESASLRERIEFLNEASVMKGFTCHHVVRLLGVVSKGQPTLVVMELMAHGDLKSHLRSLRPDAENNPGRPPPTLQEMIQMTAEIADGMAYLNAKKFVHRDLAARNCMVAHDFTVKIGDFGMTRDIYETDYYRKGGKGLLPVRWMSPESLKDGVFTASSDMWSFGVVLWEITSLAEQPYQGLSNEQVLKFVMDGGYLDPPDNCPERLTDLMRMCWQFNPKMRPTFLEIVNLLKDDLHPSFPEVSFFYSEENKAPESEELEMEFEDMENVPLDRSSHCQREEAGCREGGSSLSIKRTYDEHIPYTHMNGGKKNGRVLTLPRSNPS

What is called IC50 is the point on the concentration scale where inhibition reaches its midpoint. As a reminder, the Ki is the equilibrium dissociation constant of an inhibitor or competing ligand from its target. Regarding `CO[C@H]1C[C@@H]2CC[C@@H](C)[C@@](O)(O2)C(=O)C(=O)N2CCCC[C@H]2C(=O)O[C@H]([C@H](C)C[C@@H]2CC[C@@H](O)[C@H](OC)C2)CC(=O)[C@H](C)/C=C(\C)[C@@H](O)[C@@H](OC)C(=O)[C@H](C)C[C@H](C)/C=C/C=C/C=C/1C` [SIROLIMUS], the concentration for half-maximal inhibition (IC50) result (in assay [1]; against Insulin receptor; in assay [2]; in assay [3]; in assay [4] (cho-k1); at Mu-type opioid receptor) was “Not Active” in each case. Also, the Ki entry in assay [1] is “Not Active”.
Turning to `CN[C@@H]1[C@H](O)[C@H](NC)[C@H]2O[C@@]3(O)C(=O)C[C@@H](C)O[C@H]3O[C@@H]2[C@H]1O` [SPECTINOMYCIN], the IC50 result (in assay [1]; against Insulin receptor; in assay [2]; in assay [3]; in assay [4] (cho-k1); at Mu-type opioid receptor) was “Not Active” throughout. In addition, in assay [1], the Ki entry is given as “Not Active”.
As for `Nc1ccc(S(=O)(=O)Nc2ncccn2)cc1` [SULFADIAZINE], the IC50 entry (in assay [1]; against Insulin receptor; in assay [2]; in assay [3]; in assay [4] (cho-k1); at Mu-type opioid receptor) was “Not Active” each time. For the same compound, the Ki entry in assay [1] is “Not Active”.
Consider `COc1ncnc(NS(=O)(=O)c2ccc(N)cc2)c1OC` [SULFADOXINE], for which the IC50 result (in assay [1]; on Insulin receptor; in assay [2]; in assay [3]; in assay [4] (cho-k1); at Mu-type opioid receptor) was “Not Active” each time. The inhibitory constant (Ki) entry in assay [1] was “Not Active”.
As for `Nc1ccc(S(=O)(=O)Nc2nccs2)cc1` [SULFATHIAZOLE], the IC50 entry (in assay [1]; against Insulin receptor; in assay [2]; in assay [3]; in assay [4] (cho-k1); at Mu-type opioid receptor) was “Not Active” in each case. Also, the Ki entry in assay [1] was “Not Active”.
As to `C[C@]12CC[C@H]3[C@@H](CCC4=CC(=O)CC[C@@]43C)[C@@H]1CC[C@@H]2O` [TESTOSTERONE], the concentration for half-maximal inhibition (IC50) entry (in assay [1]; against Insulin receptor; in assay [2]; in assay [3]; in assay [4] (cho-k1); at Mu-type opioid receptor) was “Not Active” each time. Also, the inhibitory constant (Ki) result in assay [1] is listed as “Not Active”.
Take `CC(C)(C)NC[C@H](O)COc1nsnc1N1CCOCC1` [TIMOLOL]: the IC50 result (in assay [1]; against Insulin receptor; in assay [2]; in assay [3]; in assay [4] (cho-k1); at Mu-type opioid receptor) was “Not Active” throughout. In addition, the Ki entry in assay [1] is recorded as “Not Active”.
In the case of `CCS(=O)(=O)CCn1c([N+](=O)[O-])cnc1C` [TINIDAZOLE], the half-maximal inhibitory concentration (IC50) entry (in assay [1]; against Insulin receptor; in assay [2]; in assay [3]; in assay [4] (cho-k1); at Mu-type opioid receptor) was “Not Active” in each case. Besides, the inhibition constant Ki result in assay [1] is “Not Active”.
With `C[C@@H]1C[C@H]2[C@@H]3CCC4=CC(=O)C=C[C@]4(C)C3=CC[C@]2(C)[C@H]1C(=O)CN1CCN(c2cc(N3CCCC3)nc(N3CCCC3)n2)CC1` [TIRILAZAD], the half-inhibitory concentration (IC50) entry in assay [1] is “Not Active”; against Insulin receptor, “Not Active”; in assay [2] it was “Not Active”; in assay [3], “Not Active”; in assay [4] (read-out: IC50), 18.5 µM; at Mu-type opioid receptor, “Not Active”. For the same compound, the results for the Ki entry in assay [1] and in assay [4] (read-out: Ki) were “Not Active” and 11.8 µM, respectively.
On to `NC[C@H]1O[C@H](O[C@H]2[C@H](O)[C@@H](O[C@H]3O[C@H](CO)[C@@H](O)[C@H](N)[C@H]3O)[C@H](N)C[C@@H]2N)[C@H](N)C[C@@H]1O` [TOBRAMYCIN], for which the 50% inhibitory concentration (IC50) result (in assay [1]; against Insulin receptor; in assay [2]; in assay [3]; in assay [4] (cho-k1); at Mu-type opioid receptor) was “Not Active” throughout. Moreover, the Ki entry in assay [1] is reported as “Not Active”.
As for `COc1ccc(CN2CCNCC2)c(OC)c1OC` [TRIMETAZIDINE], the half-maximal inhibitory concentration (IC50) result (in assay [1]; against Insulin receptor; in assay [2]; in assay [3]; in assay [4] (cho-k1); on Mu-type opioid receptor) was “Not Active” throughout. The Ki result in assay [1] was “Not Active”.
Take `CC(=O)O[C@H]1C[C@@H]2CC[C@@H]3[C@H](CC[C@@]4(C)[C@H]3C[C@H]([N+]3(C)CCCCC3)[C@@H]4OC(C)=O)[C@@]2(C)C[C@@H]1N1CCCCC1.[Br-]` [VECURONIUM BROMIDE]: the half-inhibitory concentration (IC50) entry (in assay [1]; against Insulin receptor; in assay [2]; in assay [3]; in assay [4] (cho-k1); at Mu-type opioid receptor) was “Not Active” in each case. Moreover, the inhibition constant (Ki) result in assay [1] is on record as “Not Active”.
As to `COc1cc(C(=O)NS(=O)(=O)c2ccccc2C)ccc1Cc1cn(C)c2ccc(NC(=O)OC3CCCC3)cc12` [ZAFIRLUKAST], the IC50 result (in assay [1]; against Insulin receptor; in assay [2]; in assay [3]; in assay [4] (cho-k1); on Mu-type opioid receptor) was “Not Active” each time. Moreover, in assay [1], the Ki entry is on record as “Not Active”.
Take `Cc1cn([C@H]2C[C@H](N=[N+]=[N-])[C@@H](CO)O2)c(=O)[nH]c1=O` [ZIDOVUDINE]: the 50% inhibitory concentration (IC50) entry (in assay [1]; against Insulin receptor; in assay [2]; in assay [3]; in assay [4] (cho-k1); on Mu-type opioid receptor) was “Not Active” each time. Also, in assay [1], the Ki result is “Not Active”.
